This note sets out measurements from US20200108032A1, “USE OF ISOFERULIC ACID, ISOFERULIC ACID-CONTAINING TRADITIONAL CHINESE MEDICINE EXTRACT AND CIMICIFUGAE RHIZOMA” (BEIJING DITAN HOSPITAL, CAPITAL MEDICAL UNIVERSITY, priority 2017, published 2020).

SMILES strings stand for the structures.

What all share (type): in vivo, C57BL/6 mice
For experiment [1], the system named is CD48-CD11b+ positive granulocytes. Nature of the experiment: Proportion of granulocytes in CIA arthritis mice (flow cytometry). The settings on record: CD48-CD11b+ granulocytes to white blood cells; 21 days after second immunization; MEAN ± SEM. An excerpt: Test materials and animals: CD48 PE and CD11b FITC antibodies were purchased from BD Pharmingen; RBC Lysis Buffer was purchased from Biolegend of the United States; other required reagents were the same as in Experimental Example 3.
(§1) Model preparation and drug administration: the administration dose of each treatment group was the same as that of Experimental Example 3. 21 days after the second immunization, the mice were anesthetized.
Animal: C57BL/6 mouse, purchased from Beijing Huafukang Biotechnology Co., Ltd.
Preparation of bone marrow single cell suspension: After anesthesia of C57BL/6 mice, the two pairs of femur and tibia of the mouse were separated, PBS was pipetted with a 2 mL syringe to flush the bone marrow cells into a flow tube, and pipetted repeatedly to obtain the bone marrow single cell suspension. The bone marrow was filtered into a flow tube with a 400-mesh strainer, discarded the supernatant after centrifugation, added 2 mL of RBC Lysis Buffer and lysed at room temperature for 15 min. Discarded the supernatant by centrifugation, harvested the bone marrow cells, resuspended by adding 1 mL of PBS, and repeatedly mixing by pipetting 100 μL into the flow tube for surface staining. […]

For experiment [2], the system named is granulocytes and NK cells. The experiment in a line: Proliferation (Ki-67) of granulocytes and NK cells in CIA arthritis mice (flow cytometry). The settings on record: intracellular Ki-67 expression; 21 days after second immunization; MEAN ± SEM.
From the text: Test materials and animals: CD3-PerCP, NK1.1-APC antibody, Ki67-PE antibody, Intracellular Fixation & Permeabilization Buffer Set were purchased from eBioscience; CD48 PE, CD11b FITC and B220-FITC antibodies were purchased from BD Pharmingen company; other required reagents were the same as in Example 7.
as §1
Animal: C57BL/6 mice, purchased from Beijing Huafukang Biotechnology Co., Ltd.
The proliferation capacity of the spleen Ki-67 expression response cell was detected by flow cytometry. Two tubes of spleen single cell suspension were prepared and used to detect the proliferation of CD48^−CD11b^+ positive granulocytes and CD3^−NK1.1^+B220^−NK cells.
The surface staining procedure was the same as in Experimental Example 7.
Intracellular staining: after surface staining, intracellular staining was performed: 1) added 100 μL of fixed membrane-breaking solution Fixation Buffer, protected it from light at room temperature, fixed the membrane for 40 min; 2) added 1 mL of Permeabilization Buffer and washed twice, discarded the supernatant 3) added 1 μL of Ki-67-PE antibody at room temperature and protected it from light for 40 min; 4) same as step 2); and 5) used flow cytometer BD Calibar to measure the percentages of intracellular Ki-67 expression in CD48^−CD11b+ positive granulocytes, and CD3^−[…]B220^−NK cells, respectively.

Experiment [3] relates to mouse model of ConA hepatitis. The experiment in a line: Serum ALT and AST in mouse model of ConA hepatitis. The note with it: serum 10 hours after ConA 15 mg/kg i.v.; doses as Experimental Example 1; MEAN ± SEM. As for the experimental part: (§2) The test materials and animals were the same as those in Experimental Example 1.
(§3) Grouping: C57BL/6 mice, male, 18-20 g, after 1 day of adaptive breeding, the mice were randomly divided into 6 groups: normal control group; ConA model group, Cimicifugae rhizoma compatibility group, Cimicifugae rhizoma group, Cimicifugae rhizoma total phenolic acid group and isoferulic acid group.
(§4) Model preparation and drug administration: except the normal control group, mice were injected intravenously once at a dose of ConA 15 mg/kg. The dosages of each drug group were the same as those of Experimental Example 1.
(1) The effects of each drug group on serum ALT and AST of ConA mice were examined. Eight mice in each group were sacrificed under anesthesia 10 hours after ConA injection. Peripheral blood was taken and serum was separated to detect ALT and AST.

The next experiment relates to serum cytokines. Nature of the experiment: Serum cytokines in CIA arthritis mice (multi-factor detection). The note with it: MEAN ± SEM. The text has this: Test materials and animals: Consistent with Experimental Example 3. Anti-type II collagen antibody ELISA kit was purchased from Chondrex, Cytokine & Chemokine 36-Plex Mouse ProcartaPlex™ Panel 1A cytokine and chemokine detection kit was purchased from ThermoFisher.
Model preparation and drug administration: the drug dosage of each treatment group was the same as that of Experimental Example 3. After 21 days of the second immunization, the mice were anesthetized.
(3) The effects of each drug group on cytokine secretion in serum and joint tissues of CIA mice were measured. Seven mice from each group were examined; peripheral blood was collected and separated from serum. Cytokines in serum were detected by multiple factors: IFN-γ, IL-6, IL-9, IL-12, IL-17A, IP-10, MCP-1, MCP-3. MIP-1α, MIP-1β, Eotaxin, and G-CSF; the right hind limb knees, joints and claws were taken and stored in liquid nitrogen for quick freezing, then homogenized and extracted protein. Multi-factor detection of cytokines in tissues: IL-9, IL-18 and MIP-2 secretion.

The subject of experiment [4] is mouse model of ConA hepatitis. The experiment in a line: Liver pathological damage (HE staining) in mouse model of ConA hepatitis. The note with it: liver 10 hours after ConA 15 mg/kg; compared with the ConA group. Here is the method:
as §2, §3, §4
(2) The effects of each drug group on liver pathological damage in ConA mice were examined. Three mice in each group were sacrificed under anesthesia 10 hours after ConA injection. The left lobe of the liver was taken, cut into a size of about 5 mm^3, and placed in 10% formalin solution, and dehydrated, transparently impregnated with wax, embedded, sliced, and spread, and observed after staining;

Take `COc1ccc(C=CC(=O)O)cc1O` [isoferulic acid, 3-hydroxy-4-methoxycinnamic acid]: in experiment [1], the “proportion of granulocytes, Bone marrow” value is 44.6 ± 5.1 % and the “proportion of granulocytes, spleen” value was 9 ± 4.4 %. In experiment [2], the “Proliferation of Granulocytes, bone marros” value stood at 27.8 ± 8.2 %; the “Proliferation of Granulocytes, spleen” value amounted to 26.8 ± 12.5 %; the “Proliferation of NK cells, spleen” value was 14 ± 9 %. In experiment [3], the ALT came out at 3573 ± 1314 U/L and the AST came to 4351 ± 1588 U/L. Also, in the experiment on serum cytokines, the Eotaxin came to 349.6 ± 85.4 pg/mL, the G-CSF was determined as 4 ± 1.2 pg/mL, the IL-6 turned out to be 23.3 ± 21.6 pg/mL and the IL-9 came out at 15 ± 5.8 pg/mL. In the experiment with serum cytokines, this molecule came in with an IL-12 of 21.9 ± 3.5 pg/mL, an IL-17A of 4.9 ± 3.1 pg/mL, an IP-10 of 52.8 ± 20.8 pg/mL and an MCP-1 of 139.3 ± 43.4 pg/mL. In the experiment with serum cytokines, this molecule gave an MCP-3 of 151.9 ± 20 pg/mL, an MIP-1α of 2.4 ± 0.6 pg/mL and an MIP-1β of 3.2 ± 1.1 pg/mL. The molecule also came in with an IFN-γ with serum cytokines (isoferulic acid 5 mg/kg) of 120.6 ± 37.1 pg/mL. The “liver pathological damage (HE staining)” value in experiment [4] was “reduced hepatocyte degeneration and necrosis”.
